Test results from paper PMC10247784, “Physiological activation of human and mouse bitter taste receptors by bile acids” (Communications Biology, 2023).

Test system: HEK293T-Gα16gust44 cells transfected with empty vector (mock)
Experiment: Calcium imaging assay (FLIPR), empty vector control (mock)
Format: cell-based
Method: This set of bile acids was chosen because of their commercial availability in high purities, their diversity within the class of bile acids and their previous detection and quantitation in human blood. Stock solutions were prepared in DMSO.
As basal growth medium for the HEK293T-Gα16gust44 cell line[17],[59] served Dulbecco’s modified eagle medium (DMEM) (Thermo Fisher Scientific, Darmstadt, Germany) supplemented with 10 % fetal bovine serum (Sigma-Aldrich, Steinheim, Germany), 2 mM L-glutamine (Sigma-Aldrich, Steinheim, Germany), 100 units/ml penicillin (Sigma Aldrich, Steinheim, Germany) and 100 µg/ml streptomycin (Sigma Aldrich, Steinheim, Germany). Growth conditions were 37 °C, 5 % CO2 and saturated air-humidity[60].
HEK293T-Gα16gust44 cells were seeded on poly-D-lysine (10 µg/ml) coated 96-well plates to reach a confluence of 40-60 % the next day. For transient transfection 150 ng of plasmid DNA containing the receptor of interest and 0.3 µl lipofectamine 2000 (Thermo Fisher Scientific, Darmstadt, Germany) per well were used and transfection took place according to the manual of lipofectamine 2000. […] The empty vector DNA (mock) was transfected as negative control[14],[41].
Cells were loaded using the calcium-sensitive fluorescent dye Fluo-4-AM (Abcam, Cambridge, Great Britain) in the presence of 2.5 mM probenecid (Sigma-Aldrich, Steinheim, Germany) the day after transfection[13],[41]. 1 h after loading, cells were washed with C1 buffer using a BioTek Cell Washer, incubated in the dark for half an hour and washed again. For automated agonist application and measurement of fluorescence changes, a FLIPR^TETRA device (Molecular Devices, San José, United States) was used. Viability of cells was tested by application of 100 nM Somatostatin 14 (Bachem, Bubendorf, Switzerland)[42].
Measured data were negative control corrected by subtracting the signal of the mock-transfected cells and exported to Microsoft Excel using the FLIPR software ScreenWorks 4.2. In Microsoft Excel software, standardization of maximum fluorescence intensities to the basal fluorescence and normalization to the buffer-only control was done to calculate the relative fluorescence changes (ΔF/F).
Initial screening experiments performed in duplicate wells were confirmed by at least one replication and representative traces were selected for display. All dose-response relationships were determined by three independent experiments (biological replicates) performed in duplicates (technical replicates). Threshold concentrations, defined as lowest substance concentrations leading to statistically significant elevated fluorescence changes in receptor-transfected cells compared with empty vector-transfected cells, were determined using SigmaPlot with Student’s t-test to evaluate statistical significance (p < 0.01).

[1] = Mock, sheet Tas2r105, conc. 0,01 mM
[2] = Mock, sheet Tas2r105, conc. 0,001 mM
[3] = Mock, sheet Tas2r105, conc. 0,003 mM
[4] = conc. 0,001 mM, Mock (sheet TAS2R1)
[5] = conc. 0,003 mM, Mock (sheet TAS2R1)

SMILES: C[C@H](CCC(=O)NCC(=O)O)[C@H]1CC[C@H]2[C@@H]3[C@H](O)C[C@@H]4C[C@H](O)CC[C@]4(C)[C@H]3C[C@H](O)[C@]12C [Glycocholic Acid, glycocholic acid]
- Δ F/F (Conc. 0,01 mM, Mock (sheet TAS2R39)): -0.01548
- Δ F/F (Conc. 0,1 mM, Mock (sheet TAS2R39)): -0.02609
- Δ F/F (Conc. 0,03 mM, Mock (sheet TAS2R39)): -0.02235
- Δ F/F (Conc. 0,3 mM, Mock (sheet TAS2R39)): -0.04919
- Δ F/F (Conc. 0,001 mM, Mock (sheet TAS2R39)): -0.01811
- Δ F/F (Conc. 1 mM, Mock (sheet TAS2R39)): -0.07251
- Δ F/F (Conc. 0,003 mM, Mock (sheet TAS2R39)): -0.02014
- Δ F/F (Mock (sheet Tas2r123), conc. 0,01 mM): -0.001257
- Δ F/F (Mock (sheet Tas2r123), conc. 0,1 mM): -0.001605
- Δ F/F (Mock (sheet Tas2r123), conc. 0,03 mM): -0.001376
- Δ F/F (Mock (sheet Tas2r123), conc. 0,3 mM): 0.0005119
- Δ F/F (Mock (sheet Tas2r123), conc. 0,001 mM): -0.001339
- Δ F/F (Mock (sheet Tas2r123), conc. 0,003 mM): -0.001948
- Δ F/F (Mock (sheet Tas2r126), conc. 0,01 mM): -0.0096
- Δ F/F (Mock (sheet Tas2r126), conc. 0,1 mM): -0.02403
- Δ F/F (Mock (sheet Tas2r126), conc. 0,03 mM): -0.01217
- Δ F/F (Mock (sheet Tas2r126), conc. 0,3 mM): -0.03338
- Δ F/F (Mock (sheet Tas2r126), conc. 0,001 mM): -0.01229
- Δ F/F (Mock (sheet Tas2r126), conc. 1 mM): -0.06654
- Δ F/F (Mock (sheet Tas2r126), conc. 0,003 mM): -0.01228
- Δ F/F (Mock (sheet Tas2r144), conc. 0,01 mM): 0.0008421
- Δ F/F (Mock (sheet Tas2r144), conc. 0,1 mM): 0.001148
- Δ F/F (Mock (sheet Tas2r144), conc. 0,03 mM): -3.983e-5
- Δ F/F (Mock (sheet Tas2r144), conc. 0,3 mM): 0.0006824
- Δ F/F (Mock (sheet Tas2r144), conc. 0,003 mM): 0.002307
- Δ F/F (Mock, sheet TAS2R4, conc. 0,01 mM): -0.0004971
- Δ F/F (Mock, sheet TAS2R4, conc. 0,1 mM): -0.0007383
- Δ F/F (Mock, sheet TAS2R4, conc. 0,03 mM): -0.0008538
- Δ F/F (Mock, sheet TAS2R4, conc. 0,3 mM): 3.213e-5
- Δ F/F (Mock, sheet TAS2R4, conc. 0,001 mM): -0.0002133
- Δ F/F (Mock, sheet TAS2R4, conc. 0,003 mM): -6.081e-5
- Δ F/F (Mock, sheet TAS2R14, conc. 0,01 mM): -0.01698
- Δ F/F (Mock, sheet TAS2R14, conc. 0,1 mM): -0.02625
- Δ F/F (Mock, sheet TAS2R14, conc. 0,03 mM): -0.01883
- Δ F/F (Mock, sheet TAS2R14, conc. 0,3 mM): -0.03707
- Δ F/F (Mock, sheet TAS2R14, conc. 0,001 mM): -0.0212
- Δ F/F (Mock, sheet TAS2R14, conc. 1 mM): -0.05126
- Δ F/F (Mock, sheet TAS2R14, conc. 0,003 mM): -0.01715
- Δ F/F (Mock, sheet TAS2R46, conc. 0,01 mM): -0.02275
- Δ F/F (Mock, sheet TAS2R46, conc. 0,1 mM): -0.03044
- Δ F/F (Mock, sheet TAS2R46, conc. 0,03 mM): -0.02768
- Δ F/F (Mock, sheet TAS2R46, conc. 0,3 mM): -0.0463
- Δ F/F (Mock, sheet TAS2R46, conc. 0,001 mM): -0.02143
- Δ F/F (Mock, sheet TAS2R46, conc. 1 mM): -0.07983
- Δ F/F (Mock, sheet TAS2R46, conc. 0,003 mM): -0.02717
- Δ F/F [1]: -0.01859
- Δ F/F (Mock, sheet Tas2r105, conc. 0,1 mM): -0.0309
- Δ F/F (Mock, sheet Tas2r105, conc. 0,03 mM): -0.02007
- Δ F/F (Mock, sheet Tas2r105, conc. 0,3 mM): -0.05122
- Δ F/F [2]: -0.01558
- Δ F/F (Mock, sheet Tas2r105, conc. 1 mM): -0.09069
- Δ F/F [3]: -0.01717
- Δ F/F (Mock, sheet Tas2r108, conc. 0,01 mM): -0.01889
- Δ F/F (Mock, sheet Tas2r108, conc. 0,1 mM): -0.02753
- Δ F/F (Mock, sheet Tas2r108, conc. 0,03 mM): -0.02185
- Δ F/F (Mock, sheet Tas2r108, conc. 0,3 mM): -0.04768
- Δ F/F (Mock, sheet Tas2r108, conc. 0,001 mM): -0.0151
- Δ F/F (Mock, sheet Tas2r108, conc. 1 mM): -0.06489
- Δ F/F (Mock, sheet Tas2r108, conc. 0,003 mM): -0.01714
- Δ F/F (Mock, sheet Tas2r117, conc. 0,01 mM): -0.001257
- Δ F/F (Mock, sheet Tas2r117, conc. 0,1 mM): -0.001605
- Δ F/F (Mock, sheet Tas2r117, conc. 0,03 mM): -0.001376
- Δ F/F (Mock, sheet Tas2r117, conc. 0,3 mM): 0.0005119
- Δ F/F (Mock, sheet Tas2r117, conc. 0,0003 mM): -0.001061
- Δ F/F (Mock, sheet Tas2r117, conc. 0,001 mM): -0.001339
- Δ F/F (Mock, sheet Tas2r117, conc. 0,003 mM): -0.001948
- Δ F/F (conc. 0,01 mM, Mock (sheet TAS2R1)): -0.001476
- Δ F/F (conc. 0,1 mM, Mock (sheet TAS2R1)): -0.002206
- Δ F/F (conc. 0,03 mM, Mock (sheet TAS2R1)): -0.001334
- Δ F/F (conc. 0,3 mM, Mock (sheet TAS2R1)): 0.00174
- Δ F/F [4]: -0.0005627
- Δ F/F [5]: 0.0001343

SMILES: C[C@H](CCC(=O)O)[C@H]1CC[C@H]2[C@@H]3CC[C@@H]4C[C@H](O)CC[C@]4(C)[C@H]3CC[C@]12C [Lithocholic Acid, lithocholic acid]
- Δ F/F [1]: -0.0002988
- Δ F/F (Mock, sheet Tas2r105, conc. 0,00001 mM): -0.01431
- Δ F/F (Mock, sheet Tas2r105, conc. 0,00003 mM): -0.01708
- Δ F/F (Mock, sheet Tas2r105, conc. 0,0001 mM): -0.01503
- Δ F/F (Mock, sheet Tas2r105, conc. 0,0003 mM): -0.01339
- Δ F/F [2]: -0.01175
- Δ F/F [3]: -0.00295
- Δ F/F (conc. 0,00003 mM, Mock (sheet TAS2R1)): -7.475e-5
- Δ F/F (conc. 0,0001 mM, Mock (sheet TAS2R1)): -0.001646
- Δ F/F (conc. 0,0003 mM, Mock (sheet TAS2R1)): -0.002463
- Δ F/F [4]: -0.001163
- Δ F/F [5]: -0.0001447
